Structures can show the parent of a compound that is named as a salt.
Columns and labels:
[1] = Characterization of salt form of compound A (properties of various salts, Table 8); type: physicochemical; conditions: determined by the height of the strongest peak in XRPD
[2] = in vivo; conditions: male, SD, rat
Experimental: Test objective: by giving test compounds to SD rats via single-dose intravenous and intragastric administration and measuring the concentrations of the test compounds in plasma of rats, the pharmacokinetic characteristics and bioavailability of the test compounds in rats were evaluated.
Test animal: male SD rats, about 220 g, 6-8 weeks old, 6 rats/compound, purchased from Chengdu Ddossy Experimental Animals Co., Ltd.
Test method: on the day of the test, 6 SD rats were randomly grouped according to their body weight; the animals were fasted with water available for 12 to 14 h one day before the administration, and were fed 4 h after the administration; and the administration was performed according to Table 10.
Before and after the administration, 0.1 mL of blood samples were drawn from the orbits of the animals under isoflurane anaesthesia, and placed in an EDTAK2 centrifuge tube. Centrifugation was performed at 5000 rpm at 4° C. for 10 min, and plasma was collected.
Time points for sample collection in G1 and G2 groups comprise 0, 5 min, 15 min, 30 min, 1 h, 2 h, 4 h, 6 h, 8 h and 24 h.
Before analysis and detection, all samples were stored at −80° C.
30 μL of each of plasma samples, standard curve samples and quality control samples was taken, and 200 μL of acetonitrile solution containing an internal standard was added. The resulting mixture was homogeneously mixed by vortex and centrifuged at 4° C. at 12000 rpm for 10 min. 170 μL of the supernatant was taken and placed to a 96-well plate, and LC-MS/MS analysis was performed, wherein the sample size was 0.2 μL.
The main pharmacokinetic parameters were analysed by a non-compartmental model using WinNonlin 8.0 software.

In the case of `C1=Cc2cccc(OC[C@H]3CNCCO3)c2C1.O=S(=O)(O)c1ccccc1` [Benzenesulfonate], the Crystallinity [1] is reported as “Relatively”.

With `Cc1nnn([C@@H](c2ccccc2)C2CCN(C(=O)c3cc(-c4nc5cc(NC(=O)[C@@H]6C[C@@H]6F)ccc5o4)ccn3)CC2)n1` [Compound A, (1S,2S)-2-fluoro-N-(2-(2-(4-((R)-(5-methyl-2H-tetrazol-2-yl)(phenyl)methyl)piperidine-1-carbonyl)pyridin-4-yl)benzo[d]oxazol-5-yl)cyclopropane-1-carboxamide] the bioavailability [2] was 26.1 ± 6.2%, the AUC ([2]; iv, 2 mg/kg) was 2010 ± 396 ng·h/mL and the Cmax ([2]; iv, 2 mg/kg) was 1460 ± 134 ng/mL. The half-life ([2]; iv, 2 mg/kg) was 0.897 ± 0.013 h, the AUC ([2]; po, 10 mg/kg) was 2610 ± 620 ng·h/mL and the Cmax ([2]; po, 10 mg/kg) was 715 ± 127 ng/mL. The Tmax ([2]; po, 10 mg/kg) was 1.67 ± 0.58 h and the half-life ([2]; po, 10 mg/kg) was 1.04 ± 0.099 h.

With `O=S(=O)(O)c1ccc2ccccc2c1` [Example 2-naphthalenesulfonate, 2-naphthalenesulfonate] the Crystallinity [1] was “High”.

For `Br` [Hydrobromide], the Crystallinity [1] was “High”.
